Data reported in patent EP0515927A2, “Pradimicin antibiotics” (priority 1991, dated 1992).
Values after ≈ are worked out from the molar mass of the structure shown. Read-outs that look alike come from different tables or passages of the source.

Assays:
[1] = system: C. albicans A9540; experiment: In vivo efficacy against C. albicans A9540 systemic infection in mice; parameters: species or system male ICR mice; conditions: single i.v. injection immediately after i.v. challenge; survivors on 20th day
Description: The in vivo efficacy of pradimicins was evaluated against C. albicans A9540 systemic infection in male ICR mice (20-24 g body weight). The pathogen was cultured for 18 hours at 28°C in YGP medium (yeast extract 0.2%, glucose 1.5%, peptone 0.5%, K2HP04 0.05% and MgS04 0.05%) and resuspended in saline. Mice were challenged intravenously with 10 times lethal dose of the pathogen. Immediately after the fungal challenge, groups of 5 mice received a single intravenous injection of pradimicin S or FS or N-methyl pradimicin S at various dose levels. Amphotericin B and Fluconazol were used as positive controls. The median protective dose (PDso) was determined from the number of surviving mice recorded on the 20th day after the fungal infection.

[2] = system: herpes simplex virus type I (HSV-1); conditions: 72 h
[3] = system: Vero cells; conditions: HSV-Vero cell, (TD50: 50% cytotoxicity without virus)
[4] = Acute toxicity in mice after single i.v. administration; format: in vivo
Description: The acute toxicity of pradimicins S and FS and N-methyl pradimicin S was determined in mice after single administration (i.v.).

[5] = system: various fungal organisms; experiment: In vitro antifungal activity, agar dilution method, Yeast Morphology agar with 1/15 M phosphate buffer (pH 7.0); format: cell-based; conditions: summary in words (Table 7 is an image)
Description: The in vitro antifungal activity of pradimicins was determined by a conventional agar dilution method using Yeast Morphology agar containing 1/15 M phosphate buffer (pH 7.0).

[6] = system: influenza virus A; experiment: In vitro antiviral activity, influenza virus A-MDCK cell system, dye-uptake assay (inhibition of viral cytopathic effect); format: cell-based; conditions: 50% inhibition of cytopathic effect, 72 hours
[7] = system: Madin Darby canine kidney (MDCK) cell; conditions: Influenza virus-MDCK cell, (TD50: 50% cytotoxicity without virus)
[8] = mouse, in vivo, iv, read-out: LD50

| Molecule | PD50 mg/kg (i.v.) [1] [mg/kg] | ID50 [2] [µg/mL] | ID50 [3] [µg/mL] | LD50 [4] [mg/kg] | in vitro antifungal activity [5] | ID50 [6] [µg/mL] | LD50 [4, 8] [mg/kg] | ID50 [7] [µg/mL] |
| --- | --- | --- | --- | --- | --- | --- | --- | --- |
| OC(Cn1cncn1)(Cn1cncn1)c1ccc(F)cc1F [Fluconazol, reference compound] | >50 | – | – | – | – | – | – | – |
| Nc1nc2c(ncn2COCCO)c(=O)[nH]1 [Acyclovir, reference compound] | – | 0.09 (≈ 0.4 µM) | >100 | – | – | – | – | – |
| N-methyl pradimicin S [BMY-29273] | 47 | – | – | ≥ 424 | activity against various fungal organisms | – | – | – |
| CN[C@@H]1[C@H](O[C@@H]2O[C@H](CO)[C@@H](O)[C@H](OS(=O)(=O)O)[C@H]2O)[C@@H](O)[C@H](O[C@H]2c3cc(C)c(C(=O)N[C@H](C)C(=O)O)c(O)c3-c3c(cc4c(c3O)C(=O)c3cc(OC)cc(O)c3C4=O)[C@@H]2O)O[C@@H]1C [Pradimicin S, pradimicin S] | 35 | >100 | >100 | – | activity against various fungal organisms | 22 (≈ 23.1 µM) | 244 | >100 |
| C[C@@H]1[C@H](O)[C@@H](C)/C=C/C=C/C=C/C=C/C=C/C=C/C=C/[C@H](O[C@@H]2O[C@H](C)[C@@H](O)[C@H](N)[C@@H]2O)C[C@@H]2O[C@](O)(C[C@@H](O)C[C@@H](O)[C@H](O)CC[C@@H](O)C[C@@H](O)CC(=O)O[C@H]1C)C[C@H](O)[C@H]2C(=O)O [Amphotericin B, reference compound] | 0.31 | – | – | – | – | – | – | – |
| CN[C@@H]1[C@H](O[C@@H]2O[C@H](CO)[C@@H](O)[C@H](OS(=O)(=O)O)[C@H]2O)[C@@H](O)[C@H](O[C@H]2c3cc(C)c(C(=O)N[C@H](CO)C(=O)O)c(O)c3-c3c(cc4c(c3O)C(=O)c3cc(OC)cc(O)c3C4=O)[C@@H]2O)O[C@@H]1C [Pradimicin FS, pradimicin FS] | 18 | >100 | >100 | – | activity against various fungal organisms | 82 (≈ 84.8 µM) | 210 | >100 |
| NC(=O)c1ncn([C@@H]2O[C@H](CO)[C@@H](O)[C@H]2O)n1 [Ribavirin, reference compound] | – | – | – | – | – | 9.5 (≈ 38.9 µM) | – | – |
